Laboratory results published in patent US9446147B2, “Membrane stabilizing compositions and methods” (The Ohio State University, priority 2011, dated 2016).

How the values were obtained:
[1] = lyophilization and rehydration of calcein-loaded LUVs (contents loss, DLS, cryo-TEM); format: physicochemical; settings: used in place of cholesterol glycopolymer 8 in DPPC or hydrogenated ePC LUVs
Experimental: (§1) The anhydrobiotic membrane preservation properties of the trehalose polymers on supported lipid bilayers (SLBs) were tested. […] Moreover, lyophilized calcein-loaded trehalose-polymer vesicles could be rehydrated without contents loss and maintenance of vesicle size distribution. The cryo-preservative effects of trehalose and other sugars on proteins and membrane structures has been known for some time, though high solution concentrations are required; here we find that preservative properties at mole ratios of about 10% to about 30%. This preservative property permits long-term anhydrous storage of reagents without compromising therapeutic effect. Thus, membrane-anchored polysaccharides may be a useful biotechnology tool for production of systemic drug carriers that are stable to attack from serum proteins, dehydration and freeze-drying.
Sugar solutions (10:1 sugar:lipid) are known to protect LUVs from contents loss and fusion upon lyophilization and rehydration. It was find that covalent presentation of polymeric trehalose on multiple lipid anchors confers significant membrane anhydrobiotic and cryo-protection at sugar:lipid ratios of 0.1-0.3. […] LUVs containing phospholipid glycodimer 7 and phospholipid glycopolymer 9 readily deposited, possibly by virtue of higher membrane fluidity.

[2] = dehydration-rehydration of supported lipid bilayers (SLBs), microscopy and FRAP; format: physicochemical; settings: supported lipid bilayers on glass
Experimental: as §1
FIGS. 10A and 10B are photomicrographs of supported lipid bilayers containing (A) phospholipid dimer 7 or (B) phospholipid polymer. The mole percent is as indicated. The top rows of (A) and (B) show freshly formed SLBs; whereas the bottom rows show SLBs after drying and rehydration. The photos were taken at 10× magnification and the scale bar is 100 μm. FIGS. 10C and 10D show FRAP containing SLBs with 10% phospholipid polymer before and after dehydration, respectively. These photos were taken at 40× magnification and the scale bar is 40 μm.

[3] = contents release assay of calcein-loaded vesicles in fetal bovine serum; format: in vitro ADME; settings: vesicles of 80% DPPC and 20% dimer
From the text: […] Vesicle stabilization by the glycolipid derivatives was strongly affected by degree of oligomerization and solubility. […] Though there is clearly an advantage to structures larger than a dimer, larger oligomer or polymers may be limited by their ability to incorporate into the lipid membrane. Thus, it was difficult to achieve mole percent incorporation levels higher than 10% for phospholipid glycopolymer 9 and 30% for cholesterol glycopolymer 8.

| contents loss and fusion after lyophilization and rehydration [1] | contents loss upon exposure to serum [3] | Compound | protection of SLBs from delamination on drying/rehydration [2] |
| --- | --- | --- | --- |
| total contents loss and extensive fusion |  | CC(C)CCC[C@@H](C)[C@H]1CC[C@H]2[C@@H]3CC=C4C[C@@H](O)CC[C@]4(C)[C@H]3CC[C@]12C [cholesterol] |  |
|  | greatly minimized | trehalose cholesterol thioglycolate thioether dimer | protect supported lipid bilayers from delamination upon drying |
